Assay in all cases: inhibition of tumour cell growth, NCI panel, 48 h
Assay [1] deals with HL-60(TB) leukemia.
The subject of assay [2] is NCI-H522 lung.
In assay [3] the test system is HCT-116 colon.
In assay [4] the test system is HCC-2998 colon.
The test system of assay [5] is RPMI-8226 leukemia.
Assay [6] concerns BT-549 breast.
Assay [7] deals with A549 NSCLC.
Assay [8] concerns UACC-257 melanoma.
Assay [9] relates to EKVX NSCLC.
Assay [10] concerns M14 melanoma.

“And” between values parts separate entries of the source, which are not always exact repeats. Identical values can stand only once.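 These data come from cells grown in 96-well plates and exposed to compound for 48 hours at five concentrations. GI50 marks 50% less growth. TGI: total growth inhibition.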

As for `Cc1cc(NCCN(C(C)C)C(C)C)nc(/N=C(\N)Nc2ccc(Cl)c(C(F)(F)F)c2)n1`, the GI50 is 0.38 µM in assay [1]; 0.206 µM in assay [2]; 0.275 µM in assay [3]; 0.214 µM in assay [4]; 0.22 µM in [5]; 1.64 µM in [6]. Also, the GI50 in assay [7] is 0.356 µM; in assay [8], 0.187 µM; in [9], 1.48 µM; in assay [10], 0.181 µM. The TGI was 0.952 µM in assay [1]; 0.47 µM in assay [2]; 2.38 µM in [3]; 0.469 µM in [4]; 0.662 µM in assay [5]; 3.59 µM in [6]. Also, the TGI is 1.11 µM in [7], 0.337 µM in [8], 3.75 µM in assay [9] and 0.323 µM in assay [10].
As for `CC(=O)C(=Cc1ccc(C=C(C(C)=O)C(C)=O)cc1)C(C)=O`, the TGI was 4.52 µM in assay [1]; 1.93 µM in assay [2]; 1.81 µM in assay [3]; 7.66 µM in [4]; 1.71 µM in [5]; 4.6 µM in assay [6]. Also, the TGI in assay [7] was 25.2 µM; in assay [8], 4.48 µM; in assay [9], 8.76 µM; in [10], 3.59 µM.
Regarding `O=C(Cn1c(=O)c(-c2ccccc2)nc2ccccc21)Nc1ccc(F)cc1`, the GI50 was 14.1 µM in assay [1]; 65.1 µM in assay [2]; 24 µM in assay [3]; > 100 µM in assay [4]; 37.4 µM in assay [5]; 36.4 µM in [6]. For the same compound, the GI50 in assay [7] was 94.8 µM; in assay [8], > 100 µM; in assay [9] it was 87.1 µM; in assay [10] it was > 100 µM. For the same compound, the TGI in [1] is 48 µM; in assay [2] it was > 100 µM; in [3] it was > 100 µM; in assay [4], > 100 µM; in [5], > 100 µM; in assay [6] it was > 100 µM. The TGI in [7], in assay [8], in assay [9] and in assay [10] was > 100 µM in each case.
For the compound `C[C@]12CCc3sc(NCCc4ccccc4)nc3C1=CC[C@@H]1[C@@H]2CC[C@]2(C)C(=O)CC[C@@H]12`, the GI50 in [1] is 2.93 µM; in assay [2] it was 1.78 µM; in [3], 2.87 µM; in assay [4] it was 8.19 µM; in assay [5] it was 1.79 µM; in assay [6], 2.42 µM. Moreover, the GI50 is 7 µM in assay [7], 4.92 µM in [8], 90.1 µM in [9] and 3.63 µM in assay [10]. Further, the TGI is 9.1 µM in assay [1]; 3.64 µM in [2]; 12.3 µM in [3]; > 100 µM in [4]; 5.69 µM in assay [5]; > 100 µM in assay [6]. Besides, the TGI is > 100 µM in [7], 79.8 µM in assay [8], > 100 µM in assay [9] and > 100 µM in assay [10].
Turning to `Cc1cc(O)c(C2=NN(c3ccc(S(N)(=O)=O)cc3)C(c3ccccc3Cl)C2)cc1Cl` (stereo not given), the GI50 in assay [1] was 3.44 µM; in assay [2] it was 1.89 µM; in [3], 1.76 µM; in assay [4] it was 2.1 µM; in [5], 2.98 µM; in assay [6], 2.16 µM. In addition, the GI50 in assay [7] is 3.82 µM; in [8], 11.8 µM; in assay [9] it was 1.95 µM; in [10], 1.85 µM. Also, the TGI was > 100 µM in [1]; 3.97 µM in assay [2]; 3.15 µM in assay [3]; 3.91 µM in assay [4]; 8.35 µM in assay [5]; 4.74 µM in [6]. The TGI turned out to be 19.3 µM in [7], 79.6 µM in assay [8], 4.6 µM in assay [9] and 3.43 µM in assay [10].
In the case of `c1csc(-c2cn3nc(-c4c[nH]c5ccccc45)sc3n2)c1`, the GI50 in assay [1] is 0.76 µM; in [2] it was 0.754 µM; in assay [3], 0.627 µM; in assay [4] it was 2.99 µM; in assay [5], 1.47 µM; in [6], 2.87 µM. The GI50 was 1.72 µM in assay [7], 11.4 µM in [8], 1.99 µM in assay [9] and 0.75 µM in [10]. The TGI in [1] is 20.9 µM; in assay [2] it was > 100 µM; in assay [3] it was 70.6 µM; in [4] it was 26.7 µM; in assay [5] it was 15.4 µM; in [6], 31.7 µM. The TGI in [7] is > 100 µM; in assay [8] it was 98.3 µM; in assay [9], > 100 µM; in assay [10], 15.8 µM.
On to `CC1OC(n2c3ccccc3c3c4c(c5c6ccccc6[nH]c5c32)C(=O)N(CCN[C@@H]2CCC[C@H]2N)C4=O)CC(O)C1O` (stereo not given in full), for which the GI50 in assay [1] is 1.26 µM; in [2], 0.962 µM; in assay [3], 1.32 µM; in [4], 3.23 µM; in [5], 1.14 µM; in assay [6] it was 1.74 µM. The GI50 in [7] was 2.48 µM; in assay [8], 3.73 µM; in [9] it was 1.8 µM; in [10] it was 1.63 µM. The TGI in assay [1] amounted to 8.23 µM; in assay [2] it was 5.26 µM; in assay [3], 5.54 µM; in assay [4], 11.4 µM; in assay [5] it was 2.89 µM; in assay [6], 8.85 µM. In addition, the TGI in assay [7] was determined as 9.17 µM; in assay [8] it was 10.5 µM; in [9], 8.35 µM; in assay [10] it was 7.14 µM.
As to `Cc1ccc(C(CC(=O)c2ccccc2)C2C(=O)NC(=O)NC2=O)cc1` (stereo not given), the GI50 in [1], in assay [2], in assay [3], in assay [4], in assay [5] and in assay [6] was > 100 µM each time. For the same compound, the GI50 in assay [7], in assay [8], in assay [9] and in assay [10] was > 100 µM each time. The TGI in assay [1], in assay [2], in assay [3], in assay [4], in assay [5] and in [6] was > 100 µM each time. Moreover, the TGI in [7], in assay [8], in assay [9] and in assay [10] was > 100 µM throughout.
For `COc1cccc2c1ccc1nc3cccc(C(=O)N[C@H](C)CN(C)C)c3nc12`, the GI50 is 0.32 µM in [1]; 0.0579 µM in [2]; 0.0379 µM in [3]; 0.108 µM in assay [4]; 0.0918 µM in assay [5]; 0.795 µM in [6]. Besides, the GI50 in assay [7] is 0.0402 µM; in assay [8], 0.16 µM; in [9], 0.141 µM; in assay [10] it was 0.138 µM. Besides, the TGI came to 1.98 µM in [1]; 0.279 µM in assay [2]; 0.508 µM in assay [3]; 0.298 µM in [4]; 0.647 µM in assay [5]; 2.93 µM in assay [6]. For the same compound, the TGI in assay [7] is 1.99 µM; in assay [8] it was 0.659 µM; in assay [9], 3.16 µM; in [10] it was 0.339 µM.
Turning to `O=S(=O)(Nc1ccc(Br)c(Cl)c1)c1ccc(-c2cnc(C3CC3)o2)cc1`, the GI50 in assay [1] is 0.303 µM; in assay [2], 0.262 µM; in assay [3] it was 0.432 µM; in assay [4], 1.61 µM; in assay [5], 0.585 µM; in assay [6] it was 0.682 µM. Further, the GI50 in [7] was 0.789 µM; in assay [8], 2.08 µM; in assay [9], 2.07 µM; in assay [10], 0.458 µM. The TGI was 4.96 µM in assay [1]; 10.7 µM in assay [2]; 13.6 µM in [3]; 11.6 µM in assay [4]; 64.8 µM in [5]; 17.8 µM in [6]. Further, the TGI in [7] stood at 18.3 µM; in [8], 25.9 µM; in [9], 21 µM; in assay [10], 14.1 µM.
Regarding `CC1CC2OC(=O)C(C)C2CC2(C)C(OC3OC(CO)C(O)C(O)C3O)OCCC12` (stereo not given), the TGI was > 100 µM in assay [1]; > 100 µM in assay [2]; > 100 µM in assay [3]; > 100 µM in [4]; > 100 µM in [5]; 29.4 µM in [6]. Further, the TGI in [7], in [8], in assay [9] and in [10] was > 100 µM throughout.
For the compound `CC1OC(OC2C[C@](O)(C(=O)CF)Cc3c(O)c4c(c(O)c32)C(=O)c2ccccc2C4=O)CC(N)C1O` (stereo not given in full), the TGI was < 0.0291 µM in assay [1]; 0.104 µM in [2]; 0.388 µM in assay [3]; 0.488 µM in assay [4]; 0.132 µM in assay [5]; 0.918 µM in assay [6]. Also, the TGI in assay [7] was found to be 0.173 µM; in assay [8], 1.21 µM; in assay [9], 4.64 µM; in [10], 0.368 µM.
On to `O=C1c2cccc(NCCN=Cc3cc([N+](=O)[O-])ccc3O)c2C(=O)c2c(NCCN=Cc3cc([N+](=O)[O-])ccc3O)cccc21`, for which the GI50 in assay [1] was 38.8 µM; in [2], 4.07 µM; in [3] it was 1.28 µM; in assay [4], 5.87 µM; in [5], 1.03 µM; in assay [6], 36.9 µM. In addition, the GI50 is 3.89 µM in assay [7], > 100 µM in assay [8], 16.1 µM in assay [9] and 26.8 µM in assay [10]. The TGI is > 100 µM in assay [1]; > 100 µM in [2]; 81.5 µM in assay [3]; > 100 µM in assay [4]; 4.35 µM in assay [5]; > 100 µM in [6]. Moreover, the TGI in assay [7], in assay [8], in [9] and in [10] was > 100 µM throughout.
Consider `Cc1ccc(-c2nc(C#N)c(S(=O)(=O)n3nc(C)cc3N)o2)cc1`, for which the GI50 is 2 µM in assay [1]; 1.65 µM in assay [2]; 3.16 µM in assay [3]; 19.5 µM in assay [4]; 3.07 µM in assay [5]; 3.85 µM in assay [6]. Also, the GI50 is 19.6 µM in [7], 16.5 µM in assay [8], 21.8 µM in assay [9] and 3.35 µM in assay [10]. Also, the TGI was 5.42 µM in assay [1]; 3.58 µM in assay [2]; 13.2 µM in [3]; 38 µM in assay [4]; 10.1 µM in assay [5]; 14.8 µM in [6]. The TGI in assay [7] worked out at 39.8 µM; in assay [8], 30.1 µM; in [9] it was 55 µM; in assay [10], 14.4 µM.
For `O=c1cc(-c2ccccc2F)[nH]c2ccc(N3CCCC3)cc12`, the GI50 in assay [1] was < 0.001 µM; in [2], < 0.001 µM; in assay [4], 0.0204 µM; in assay [5], < 0.001 µM; in assay [7], < 0.001 µM; in assay [9] it was > 100 µM. In addition, the GI50 in [10] is < 0.001 µM. Moreover, the TGI in assay [4] was 0.455 µM and 0.0546 µM; in [6], > 100 µM; in assay [7] it was > 100 µM; in assay [8] it was > 100 µM; in assay [10], > 100 µM.
Take `O=C1C(N2CC2)=C(N2CC2)C(=O)C(N2CC2)=C1N1CC1`: the GI50 in [1] was 0.201 µM; in [2], 0.432 µM; in assay [4], 0.168 µM; in assay [5] it was 2.74 µM; in [6], 0.318 µM; in assay [7], 0.059 µM. The GI50 in assay [8] is 0.109 µM; in assay [9] it was 1.7 µM; in assay [10], < 0.0211 µM. Moreover, the TGI in assay [1] worked out at 8.64 µM; in [2], 2.21 µM; in assay [4] it was 0.569 µM; in assay [5], 17.2 µM; in [6], 1.53 µM; in assay [7] it was 0.428 µM. For the same compound, the TGI in assay [8] stood at 0.749 µM; in [9], 6.88 µM; in [10] it was 0.199 µM.

These data come from PubChem BioAssay (NCI).
